From patent publication US20240043539A1, “METHODS OF INDUCING AN IMMUNOMODULATORY TUMOR RESPONSE” (CORNELL UNIVERSITY, priority 2020, published 2024) come the findings set out here.

Holding throughout (format): cell-based, mouse
One assay concerns oTME macrophages (BMDMs). Briefly: γ-secretase inhibition: Ki67 in M2-educated (oTME) macrophages, flow cytometry. On the procedure:
BMDMs were co-cultured with oTME cells for 7 days and treated either with CompE ([…]) or DMSO as a control for additional 10 days. Cells were analyzed by flow cytometry for Ki67, F4/80, and CD11b. Data (n=3) are shown as mean±SD., 2-way ANOVA test, Bonferroni-corrected. FIG. 17D is a pre-clinical study design. […] Tumor sizes were recorded by caliper and shown as mean±SD., 2-way ANOVA test, Bonferroni-corrected. At the trial endpoint, lungs were collected and stained with H&E (right). […] At study endpoint, tumor transplants from (FIG. 17E) were scored for Ki67 in macrophages and in tumor cells (PyMT; mT^neg CD45^neg). Data are shown as mean±SD., 2-way ANOVA test, Bonferroni-corrected. Macrophage abundance quantified as percent of CD45+ cells. Data are shown as mean±SD., Mann-Whitney test. […]

The subject of assay [1] is IL-4/IL-13-treated macrophages (BMDMs). Briefly: Arg1 expression in IL-4/IL-13-treated macrophages (absence of oTME cells), flow cytometry.
The test system of assay [2] is Arg1-EYFP BMDMs co-cultured with oTME cells. How it is done: FIGS. 6A-6H show a genome-wide pooled M2-like education screen in primary macrophages. […] Gene hits in EYFP″g BMDMs are highlighted in red. Distribution of LFC values (red lines) across all four sgRNAs of select gene targets (right). […] Arg1-EYFP BMDMs were co-cultured with oTME cells for 7 days, and then were treated with Abemaciclib (5, 10 μM) or DMSO for additional 7 days and analyzed by flow cytometry for EYFP (n=4 replicates). Data are shown as mean±SD., 2-tailed unpaired Student's t-test. […] Arg1-EYFP BMDMs were treated for 7 days with a cytokines cocktail consists of IL-4 (10 ng/mL), IL-13(80ng/mL), M-CSF(10 ng/mL) or with M-CSF alone as control (supplemented every 3 days). Cells were then treated with Abemaciclib (5 μM) or DMSO for additional 7 days and analyzed by flow cytometry for EYFP (n=3 replicates). Data are shown as mean±SD., 2-tailed unpaired Student's t-test. […] Cells then treated with PF-431369 (5 uM) or DMSO for additional 7 days. On day 14, cells were fixed and stained for Arg1 and CD206 and analyzed by flow cytometry. (n=3 replicates). Data are shown as mean±SD., 2-tailed unpaired Student's t-test. […]
Flow Cytometry and Fluorescence-Activated Cell Sorting (FACS): Flow cytometry data were collected using BD LSRFortessa, BD FACSCanto II, and BD FACSAria III was used for FACS-sort. […]

For assay [3], the system named is BMDMs plated with oTME cells. The assay is described as follows: EdU incorporation in macrophages following 48 hrs oTME education in the presence of Tyk2 inhibitors. Particulars: BMS-986165, 10 μM vs DMSO, EdU 10 μM. The source says:
FIGS. 3A-3H show the time course single-cell RNAseq analysis of macrophage TME-education. […] Cells were profiled after 2 and 10 days with the 10× Chromium single-cell RNA-seq platform. […] The figure legend is the same as FIG. 3B. FIG. 3D is a heatmap showing macrophage education expression dynamics of M-CSF-treated (n=214), early (day 2, n=235), late (day 10, n=301) genes. The cells are sorted and split into 20 equal-width bins by the education pseudo-time, average expression level (row-wise Z-score; color scale) of education signature genes (rows) across each bin (columns) is shown. The figure legend is the same as FIG. 3B. […] Genes are dotted and colored by logFC levels (color scale), the size of each dot represents the difference in the fraction of detection between the two groups. The p values were determined by Wilcoxon Rank Sum test. Vertical dotted lines represent ±0.75 logFC. Horizontal dotted lines represent p value of 0.01 (−log10 scale). […] Each dot represents an average of cells in 50 equal-width bins on the education pseudo-time axis, same as FIG. 3E. […] EdU incorporation was analyzed by flow cytometry (n=4 replicates). […]
EdU Incorporation: Cells were incubated with 10μM EdU (5-ethynyl-2′-deoxyuridine) without changing conditioned growth medium for the required duration and analyzed by flow cytometry according to the manufacturer's instructions (A10202; Thermo Fisher Scientific). […]

On to `C[C@H](NC(=O)Cc1cc(F)cc(F)c1)C(=O)N[C@H]1N=C(c2ccccc2)c2ccccc2N(C)C1=O` [Compound-E], for which the “reduction in Ki67 positivity” value with oTME macrophages (BMDMs) (7 days co-culture, then CompE or DMSO for additional 10 days) worked out at 89.6±3.8%. Besides, the “expression of F4/80” value in the assay on oTME macrophages (BMDMs) (oTME macrophages after treatment) is given as “increased”.

With `CN(c1ccccc1CNc1nc(Nc2ccc3c(c2)CC(=O)N3)ncc1C(F)(F)F)S(C)(=O)=O` [PF-431396], the Arg1 expression entry is “robust suppression” in assay [1] (IL-4/IL-13-treated macrophages, 5 uM or DMSO for additional 7 days, stained for Arg1 and CD206); “robust suppression” in assay [2] (oTME macrophages, 10 μM or DMSO for additional 7 days, EYFP by flow cytometry).

`[2H]C([2H])([2H])NC(=O)c1nnc(NC(=O)C2CC2)cc1Nc1cccc(-c2ncn(C)n2)c1OC` [Tyk2 inhibitors, 6-(cyclopropanecarbonylamino)-4-[2-methoxy-3-(1-methyl-1,2,4-triazol-3-yl)anilino]-N-(trideuteriomethyl)pyridazine-3-carboxamide]: the “EdU incorporation in oTME macrophages” value in assay [3] is given as “significantly decreased”.

On to `CCN1CCN(Cc2ccc(Nc3ncc(F)c(-c4cc(F)c5nc(C)n(C(C)C)c5c4)n3)nc2)CC1` [abemaciclib, N-[5-[(4-ethylpiperazin-1-yl)methyl]pyridin-2-yl]-5-fluoro-4-(7-fluoro-2-methyl-3-propan-2-ylbenzimidazol-5-yl)pyrimidin-2-amine], for which the Arg1-EYFP expression result in assay [1] (IL-4/IL-13/M-CSF for 7 days, then Abemaciclib (5 μM) or DMSO for additional 7 days) was “suppressed”; in assay [2] (oTME-educated Arg1-EYFP BMDMs, Abemaciclib (5, 10 μM) or DMSO for additional 7 days) it was “dose-dependent reduction”.
